Results on three compounds are retold here after PMC11904713 (ACS Omega, 2025).

Converted amounts (≈) assume the structure as drawn. Like-named read-outs stand apart in the source and are kept apart here.

The target of series [1] is T1, BChE (Homo sapiens, UniProt P06276). The settings on record: previous study; cited from earlier work.
In another series the test system is rat cerebral cortex AChE. The settings on record: read-out: IC50, rat cerebral cortex AChE; cited from earlier work.
Series [2] relates to AChE. The settings on record: cited from earlier work.
For series [3] the following is noted: pH 7.3 (physiological pH); cited from earlier work.
The test system of another series is eAChE. To be noted: read-out: IC50 against eAChE, cited from earlier work.
Series [4] concerns AChE. In words: AChE inhibition by IPA. It counts as biochemical. The settings on record: data not shown.
Series [5] deals with T1, BChE. In words: BChE inhibition by IPA. It counts as biochemical. To be noted: data not shown.
Series [6] in a line: ABTS radical scavenging activity. To be noted: read-out: IC50, ABTS radical scavenging.
Series [7] is described as follows: DPPH radical scavenging activity. The settings on record: read-out: IC50, DPPH radical scavenging. (The DPPH test is a chemical assay of radical scavenging.)
The nature of a further series: FRAP activity. The settings on record: CUR-IPA 50 to 250 μM; ascorbic acid 2 to 10 μM.

T1 sequence (P06276 29-602): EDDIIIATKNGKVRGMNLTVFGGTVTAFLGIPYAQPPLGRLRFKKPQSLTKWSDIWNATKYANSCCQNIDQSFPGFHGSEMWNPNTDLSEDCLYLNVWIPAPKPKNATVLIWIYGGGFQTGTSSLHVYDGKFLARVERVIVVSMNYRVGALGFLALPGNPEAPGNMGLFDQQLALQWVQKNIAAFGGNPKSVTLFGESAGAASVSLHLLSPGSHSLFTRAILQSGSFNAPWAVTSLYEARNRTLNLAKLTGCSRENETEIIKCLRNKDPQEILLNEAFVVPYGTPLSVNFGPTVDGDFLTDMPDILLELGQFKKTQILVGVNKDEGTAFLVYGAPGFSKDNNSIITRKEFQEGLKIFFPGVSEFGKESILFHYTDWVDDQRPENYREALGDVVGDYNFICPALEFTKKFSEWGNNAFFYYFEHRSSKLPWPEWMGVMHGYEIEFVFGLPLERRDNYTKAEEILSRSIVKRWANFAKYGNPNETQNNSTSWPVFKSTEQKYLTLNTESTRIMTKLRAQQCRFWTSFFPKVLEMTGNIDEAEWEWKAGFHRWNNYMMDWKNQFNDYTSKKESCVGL

Turning to `COc1cc(C=CC(=O)CC(=O)C=Cc2ccc(O)c(OC)c2)ccc1O` [CUR, 1,7-bis(4-hydroxy-3-methoxyphenyl)-1,6-heptadiene-3,5-dione], the “inhibition against BChE” value on BChE [1] was “did not show inhibition”. In addition, the figures for the IC50 with rat cerebral cortex AChE, in the series on eAChE (another study) and in the series on eAChE (previous study) were 10 µM, 67.7 µM and 51.8 µM, respectively. Further, the “effect on AChE activity in the ex vivo model” value in the series with AChE [2] was “did not affect AChE activity”. In series [3], the solubility (in general, how much of the substance goes into solution per volume) is 0.4 µg/mL (≈ 1.09 µM).
As to `O=C(O)CCc1c[nH]c2ccccc12` [IPA, Indole-3-propionic acid], the “concentration showing inhibition against AChE” value in the series with AChE [4] is no less than 500 µM. For the same compound, on BChE [5], the “concentration showing inhibition against BChE” value was no less than 500 µM.
On to `O=C1O[C@H]([C@@H](O)CO)C(O)=C1O` [ascorbic acid], for which the values for the half-inhibitory concentration (IC50) in series [6] and in [7] were 15.8 µM and 34.5 µM, respectively. In addition, the FRAP activity result in “FRAP activity” is on record as “present linearly”.
